Reference: patent US12091411B2, “IRAK degraders and uses thereof” (Kymera Therapeutics, Inc., priority 2022, dated 2024)
Read-outs that look alike come from different tables or passages of the source.

Target: T1, IRAK4 (Homo sapiens, UniProt Q9NWZ3)
T1 construct: Degradation of IRAK4 in OCI-LY10 was quantitatively measured using Meso Scale Discovery technology; endogenous in cells; host or cells: OCI-LY10
T1 sequence (Q9NWZ3 1-460): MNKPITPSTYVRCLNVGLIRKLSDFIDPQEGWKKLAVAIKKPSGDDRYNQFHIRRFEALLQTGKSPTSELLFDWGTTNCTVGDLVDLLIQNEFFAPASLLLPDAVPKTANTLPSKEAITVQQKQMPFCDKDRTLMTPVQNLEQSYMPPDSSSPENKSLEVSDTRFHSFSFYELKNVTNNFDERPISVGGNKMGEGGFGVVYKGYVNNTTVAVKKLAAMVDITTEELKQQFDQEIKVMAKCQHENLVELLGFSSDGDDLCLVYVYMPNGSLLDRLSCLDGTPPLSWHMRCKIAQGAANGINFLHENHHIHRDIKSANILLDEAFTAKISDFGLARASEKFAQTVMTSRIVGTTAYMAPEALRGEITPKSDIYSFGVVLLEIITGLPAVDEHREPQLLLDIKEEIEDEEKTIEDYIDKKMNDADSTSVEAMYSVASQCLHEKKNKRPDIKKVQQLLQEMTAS
Test: IRAK4 MSD Degradation in OCI-LY10
Type: cell-based
Settings: OCI-LY10 cells, MSD
Protocol: Degradation of IRAK4 in OCI-LY10 was quantitatively measured using Meso Scale Discovery technology. […] Compounds were then added to the assay plates with a final top concentration of 1 to 10 μM in a 1:3 dilution series with total of 8 doses. The assay plates were then incubated for 4 to 24 hours at 37° C. under 5% CO2. […] To prepare MSD assay plates (Meso Scale Discovery Catalog number L15XA-3), the plates were coated with 2 μg/mL capture antibody (mouse Anti-IRAK4 antibody [2H9], ab119942) in PBS, at 40 μL/well. […] Cell lysates were then added to MSD assay plates and the plates were incubated at room temperature for 1 hour. The plates were then washed 3 times with 150 μL/well TBST buffer and 25 μL/well primary detection antibody (rabbit Anti-IRAK4 antibody [Y279], from Abcam. Catalog number ab32511, 1 μg/mL). The assay plates were then incubated at room temperature for 1 hour, washed 3 times with 150 μL/well TBST buffer and 25 μL/well secondary detection antibody, SULFO-TAG anti-rabbit antibody were added (anti-rabbit antibody from Meso Scale Discovery, Catalog number R32AB-1, 1 μg/mL). The assay plates were then incubated at room temperature for 1 hour, washed 3 times with 150 μL/well TBST buffer, and 150 μL/well MSD reading buffer (Meso Scale Discovery catalog number R92TC-2) was added. The plates were then analyzed by a MSD reader (Meso Scale Discovery, Model Quick Plex SQ 120). The data was then analyzed by software Prism 7.0 from GraphPad and the dose-depended IRAK4 degradation were fit using a three-parameter logistic equation to calculate DC50.
The letter codes for IRAK4 DC50 include: A (<0.01 μM); B (0.01 to <0.1 μM); C (0.1 to 0.2 μM); and D (>0.2 μM or not tested).

[1] = 4 hrs incubation, read-out: IRAK4 degradation in OCI-LY10 at 4 hrs: DC50
[2] = 24 hrs incubation, read-out: IRAK4 degradation in OCI-LY10 at 24 hrs: DC50

Row | DC50 [1] [nM] | DC50 [2] [nM] | Structure (SMILES)
1 | 10 to 100 | > 200 | Cn1c(=O)n(C2CCC(=O)NC2=O)c2cccc(C#CCOC3CCN(C[C@H]4CC[C@H](n5cc(NC(=O)c6cnn7ccc(N8C[C@H]9C[C@@H]8CO9)nc67)c(C(F)F)n5)CC4)CC3(F)F)c21 (stereo partly shown) [I-18]
2 | 100 to 200 | > 200 | Cn1c(=O)n(C2CCC(=O)NC2=O)c2cccc(C#CCOC3CC4CC3CN4C[C@H]3CC[C@H](n4cc(NC(=O)c5cnn6ccc(N7C[C@H]8C[C@@H]7CO8)nc56)c(C(F)F)n4)CC3)c21 (stereo partly shown) [I-19]
3 | < 10 | > 200 | Cn1c(=O)n(C2CCC(=O)NC2=O)c2cccc(C#CCOC3CN(C[C@H]4CC[C@H](n5cc(NC(=O)c6cnn7ccc(N8C[C@H]9C[C@@H]8CO9)nc67)c(C(F)F)n5)CC4)C3)c21 (stereo partly shown) [I-20]
4 | < 10 | > 200 | Cn1c(=O)n(C2CCC(=O)NC2=O)c2cccc(C#CCO[C@H]3CCN(C[C@H]4CC[C@H](n5cc(NC(=O)c6cnn7ccc(N8C[C@H]9C[C@@H]8CO9)nc67)c(C(F)F)n5)CC4)C3)c21 (stereo partly shown) [I-21]
5 | 10 to 100 | > 200 | Cn1c(=O)n(C2CCC(=O)NC2=O)c2cccc(C#CCO[C@@H]3CCN(C[C@H]4CC[C@H](n5cc(NC(=O)c6cnn7ccc(N8C[C@H]9C[C@@H]8CO9)nc67)c(C(F)F)n5)CC4)C[C@@H]3F)c21 (stereo partly shown) [I-22]
6 | 10 to 100 | > 200 | Cn1c(=O)n(C2CCC(=O)NC2=O)c2cccc(C#CCO[C@H]3CCN(C[C@H]4CC[C@H](n5cc(NC(=O)c6cnn7ccc(N8C[C@H]9C[C@@H]8CO9)nc67)c(C(F)F)n5)CC4)C[C@@H]3F)c21 (stereo partly shown) [I-23]
7 | 10 to 100 | > 200 | Cn1c(=O)n(C2CCC(=O)NC2=O)c2cccc(C#CCO[C@@H]3CCN(C[C@H]4CC[C@H](n5cc(NC(=O)c6cnn7ccc(N8C[C@H]9C[C@@H]8CO9)nc67)c(C(F)F)n5)CC4)C3)c21 (stereo partly shown) [I-24]
8 | 10 to 100 | < 10 | C[C@H]1CN(C[C@H]2CC[C@H](n3cc(NC(=O)c4cnn5ccc(N6C[C@H]7C[C@@H]6CO7)nc45)c(C(F)F)n3)CC2)CC[C@@H]1OCC#Cc1cccc2c1n(C)c(=O)n2C1CCC(=O)NC1=O (stereo partly shown) [I-25]
9 | 10 to 100 | > 200 | C[C@H]1CN(C[C@H]2CC[C@H](n3cc(NC(=O)c4cnn5ccc(N6C[C@H]7C[C@@H]6CO7)nc45)c(C(F)F)n3)CC2)CC[C@H]1OCC#Cc1cccc2c1n(C)c(=O)n2C1CCC(=O)NC1=O (stereo partly shown) [I-26]
10 | 10 to 100 | > 200 | Cn1c(=O)n(C2CCC(=O)NC2=O)c2cccc(C#CC3CN(C[C@H]4CC[C@H](n5cc(NC(=O)c6cnn7ccc(N8C[C@H]9C[C@@H]8CO9)nc67)c(C(F)F)n5)CC4)CCO3)c21 (stereo partly shown) [I-27]
11 | < 10 | > 200 | Cn1c(=O)n(C2CCC(=O)NC2=O)c2cccc(C#CCOC3CCN(C[C@H]4C[C@H](n5cc(NC(=O)c6cnn7ccc(N8C[C@H]9C[C@@H]8CO9)nc67)c(C(F)F)n5)C4)CC3)c21 (stereo partly shown) [I-28]
12 | < 10 | > 200 | C[C@H]1C[C@@H](OCC#Cc2cccc3c2n(C)c(=O)n3C2CCC(=O)NC2=O)CCN1C[C@H]1CC[C@H](n2cc(NC(=O)c3cnn4ccc(N5C[C@H]6C[C@@H]5CO6)nc34)c(C(F)F)n2)CC1 (stereo partly shown) [I-29]
13 | 10 to 100 | > 200 | Cn1c(=O)n(C2CCC(=O)NC2=O)c2cccc(C#CCOC3C4CC3CN(C[C@H]3CC[C@H](n5cc(NC(=O)c6cnn7ccc(N8C[C@H]9C[C@@H]8CO9)nc67)c(C(F)F)n5)CC3)C4)c21 (stereo partly shown) [I-30]
14 | < 10 | > 200 | Cn1c(=O)n(C2CCC(=O)NC2=O)c2cccc(C#CCN3CCN(C[C@H]4CC[C@H](n5cc(NC(=O)c6cnn7ccc(N8C[C@H]9C[C@@H]8CO9)nc67)c(C(F)F)n5)CC4)CC3)c21 (stereo partly drawn) [I-31, N-[3-(difluoromethyl)-1-[4-[[4-[3-[1-(2,6-dioxo-3-piperidyl)-3-methyl-2-oxo-benzimidazol-4-yl]prop-2-ynyl]piperazin-1-yl]methyl]cyclohexyl]pyrazol-4-yl]-5-[(1R,4R)-2-oxa-5-azabicyclo[2.2.1]heptan-5-yl]pyrazolo[1,5-a]pyrimidine-3-carboxamide]
15 | < 10 | > 200 | C[C@@H]1C[C@@H](OCC#Cc2cccc3c2n(C)c(=O)n3C2CCC(=O)NC2=O)CCN1C[C@H]1CC[C@H](n2cc(NC(=O)c3cnn4ccc(N5C[C@H]6C[C@@H]5CO6)nc34)c(C(F)F)n2)CC1 (stereo partly shown) [I-33]
16 | 10 to 100 | > 200 | Cn1c(=O)n(C2CCC(=O)NC2=O)c2cccc(C#CCO[C@@H]3CCN(C[C@H]4CC[C@H](n5cc(NC(=O)c6cnn7ccc(N8C[C@H]9C[C@@H]8CO9)nc67)c(C(F)F)n5)CC4)C[C@@H]3F)c21 (stereo partly shown) [I-35]
17 | 10 to 100 | > 200 | Cn1c(=O)n(C2CCC(=O)NC2=O)c2cccc(C#CCO[C@H]3CCN(C[C@H]4CC[C@H](n5cc(NC(=O)c6cnn7ccc(N8C[C@H]9C[C@@H]8CO9)nc67)c(C(F)F)n5)CC4)C[C@H]3F)c21 (stereo partly shown) [I-36]
18 | < 10 | < 10 | C[C@H]1CN(C[C@H]2CC[C@H](n3cc(NC(=O)c4cnn5ccc(N6C[C@H]7C[C@@H]6CO7)nc45)c(C(F)F)n3)CC2)CC[C@@H]1OCC#Cc1cccc2c1n(C)c(=O)n2C1CCC(=O)NC1=O (stereo partly shown) [I-37]
19 | < 10 | > 200 | COc1ccc2c(c1C#CCN1CCN(C[C@H]3CC[C@H](n4cc(NC(=O)c5cnn6ccc(N7C[C@H]8C[C@@H]7CO8)nc56)c(C(F)F)n4)CC3)CC1)n(C)c(=O)n2C1CCC(=O)NC1=O (stereo partly shown) [I-39]
20 | < 10 | > 200 | Cn1c(=O)n(C2CCC(=O)NC2=O)c2cccc(C#CC3CCN(C[C@H]4CC[C@H](n5cc(NC(=O)c6cnn7ccc(N8C[C@H]9C[C@@H]8CO9)nc67)c(C(F)F)n5)CC4)CC3)c21 (stereo partly shown) [I-40]
21 | < 10 | > 200 | O=C1CCN(c2cncc3c(C#CCO[C@@H]4CCN(C[C@H]5CC[C@H](n6cc(NC(=O)c7cnn8ccc(N9C[C@H]%10C[C@@H]9CO%10)nc78)c(C(F)F)n6)CC5)C[C@@H]4F)cccc23)C(=O)N1 [I-41]
22 | 10 to 100 | > 200 | C[C@@H]1CN(C[C@H]2CC[C@H](n3cc(NC(=O)c4cnn5ccc(N6C[C@H]7C[C@@H]6CO7)nc45)c(C(F)F)n3)CC2)CCN1CC#Cc1cccc2c1n(C)c(=O)n2C1CCC(=O)NC1=O (stereo partly shown) [I-42]
23 | > 200 | > 200 | CN1C(=O)CCC(n2c(=O)n(C)c3c(C#CCN4CCN(C[C@H]5CC[C@H](n6cc(NC(=O)c7cnn8ccc(N9C[C@H]%10C[C@@H]9CO%10)nc78)c(C(F)F)n6)CC5)CC4)cccc32)C1=O (stereo partly shown) [I-43]
24 | 10 to 100 | > 200 | Cn1c(=O)n(C2CCC(=O)NC2=O)c2cccc(C#CCN3CCN(C[C@H]4CC[C@H](n5cc(NC(=O)c6cnn7ccc(N8C[C@H]9OC[C@@H]8O9)nc67)c(C(F)F)n5)CC4)CC3)c21 (stereo partly shown) [I-44]
25 | 10 to 100 | > 200 | Cn1c(=O)n(C2CCC(=O)NC2=O)c2cccc(C#CCN3C[C@H]4C[C@@H]3CN4C[C@H]3CC[C@H](n4cc(NC(=O)c5cnn6ccc(N7C[C@H]8C[C@@H]7CO8)nc56)c(C(F)F)n4)CC3)c21 (stereo partly shown) [I-45]
26 | < 10 | > 200 | O=C1CCN(c2cncc3c(C#CCO[C@H]4CCN(C[C@H]5CC[C@H](n6cc(NC(=O)c7cnn8ccc(N9C[C@H]%10C[C@@H]9CO%10)nc78)c(C(F)F)n6)CC5)C[C@H]4F)cccc23)C(=O)N1 [I-46]
27 | > 200 | > 200 | C[C@H]1CN(C[C@H]2CC[C@H](n3cc(NC(=O)c4cnn5ccc(N6C[C@H]7C[C@@H]6CO7)nc45)c(C(F)F)n3)CC2)CC[C@@H]1OCC#Cc1cccc2c1n(C)c(=O)n2C1CCC(=O)N(C)C1=O (stereo partly shown) [I-47]
28 | 10 to 100 | > 200 | C[C@@H]1CN(C[C@H]2CC[C@H](n3cc(NC(=O)c4cnn5ccc(N6C[C@@H]7C[C@H]6CO7)nc45)c(C(F)F)n3)CC2)CC[C@H]1OCC#Cc1cccc2c1n(C)c(=O)n2C1CCC(=O)NC1=O (stereo partly shown) [I-48]
29 | 10 to 100 | > 200 | C[C@@H]1CN(C[C@H]2CC[C@H](n3cc(NC(=O)c4cnn5ccc(N6C[C@H]7C[C@@H]6CO7)nc45)c(C(F)F)n3)CC2)CC[C@H]1OCC#Cc1ccc2c(N3CCC(=O)NC3=O)cncc2c1 [I-49]
